Active and inactive are the calls of the source. No cut-off for these calls is given here.
Columns and labels:
Zea mays [1] = assay: Safening activity against acetochlor-induced phytotoxicity against Zea mays (maize) assessed as increase in shoot length at 50 uM applied pre-emergence measured 14 days after treatment relative to acetochlor-treated control; assay type: functional
Zea mays [2] = assay: Increase in GST activity in Zea mays (maize) root at 50 uM applied to seeds incubated for 5 days by CDNB-based spectrophotometric analysis relative to control; assay type: functional
Zea mays [3] = assay: Effect on GSH content in Zea mays (maize) shoot at 50 uM applied to seeds incubated for 5 days by DNTB-based spectrophotometric analysis relative to control; assay type: functional, organism-based
Zea mays [4] = assay: Increase in GSH content in Zea mays (maize) shoot at 50 uM applied to seeds incubated for 5 days by DNTB-based spectrophotometric analysis relative to control; assay type: functional
Zea mays [5] = assay: Effect on GST activity in Zea mays (maize) shoot at 50 uM applied to seeds incubated for 5 days by CDNB-based spectrophotometric analysis relative to control; assay type: functional, organism-based
Zea mays [6] = assay: Increase in GSH content in Zea mays (maize) root at 50 uM applied to seeds incubated for 5 days by DNTB-based spectrophotometric analysis relative to control; assay type: functional
Zea mays [7] = assay: Decrease in GSH content in Zea mays (maize) root at 50 uM applied to seeds incubated for 5 days by DNTB-based spectrophotometric analysis relative to control; assay type: functional, organism-based
Zea mays [8] = assay: Effect on GST activity in Zea mays (maize) root at 50 uM applied to seeds incubated for 5 days by [14C]acetochlor-based liquid scintillation assay relative to control; assay type: functional, organism-based
Zea mays [9] = assay: Increase in GST activity in Zea mays (maize) shoot at 50 uM applied to seeds incubated for 5 days by CDNB-based spectrophotometric analysis relative to control; assay type: functional, organism-based
Zea mays [10] = assay: Decrease in GST activity in Zea mays (maize) root at 50 uM applied to seeds incubated for 5 days by CDNB-based spectrophotometric analysis relative to control; assay type: functional, organism-based
Zea mays [11] = assay: Increase in GST activity in Zea mays (maize) shoot at 50 uM applied to seeds incubated for 5 days by [14C]acetochlor-based liquid scintillation assay relative to control; assay type: functional
Zea mays [12] = assay: Increase in GST activity in Zea mays (maize) root at 50 uM applied to seeds incubated for 5 days by [14C]acetochlor-based liquid scintillation assay relative to control; assay type: functional

**Q.** Which Activity (Zea mays [1]) does the source give for `ClC(Cl)C1OCCCCCCO1` here?
**A.** 24%

**Q.** What about the “fold change (FC)” value (Zea mays [2]) of the same compound?
**A.** 4

**Q.** And the Activity (Zea mays [3])?
**A.** inactive

**Q.** How did the “fold change (FC)” value (Zea mays [4]) turn out when `C=CCN(CC=C)C(=O)C(Cl)Cl` [DICHLORMID] was run?
**A.** 1.78

**Q.** What about the Activity (Zea mays [1]) of the same compound?
**A.** 81%

**Q.** And the Activity (Zea mays [5])?
**A.** inactive

**Q.** And the “fold change (FC)” value (Zea mays [6])?
**A.** 1.65

**Q.** `CC1(C)COC(C(Cl)Cl)OC1` was tested. Which Activity (Zea mays [1]) did it give?
**A.** 24%

**Q.** And the Activity (Zea mays [7])?
**A.** Active

**Q.** What about the Activity (Zea mays [3]) of the same compound?
**A.** inactive

**Q.** With `CC1(C(Cl)Cl)OCCCCO1` as the compound, how does the Activity (Zea mays [4]) read?
**A.** Active

**Q.** What about the Activity (Zea mays [1]) of the same compound?
**A.** 70%

**Q.** What about the Activity (Zea mays [8]) of the same compound?
**A.** inactive

**Q.** And the Activity (Zea mays [9])?
**A.** Active

**Q.** And the Activity (Zea mays [3])?
**A.** inactive

**Q.** `ClC(Cl)C1OCCCCO1` was tested. Which Activity (Zea mays [1]) did it give?
**A.** 24%

**Q.** What about the Activity (Zea mays [7]) of the same compound?
**A.** Active

**Q.** And the Activity (Zea mays [3])?
**A.** inactive

**Q.** With `CC(C)COC(OCC(C)C)C(Cl)Cl` as the compound, how does the Activity (Zea mays [1]) read?
**A.** 24%

**Q.** What about the Activity (Zea mays [3]) of the same compound?
**A.** inactive

**Q.** How did the Activity (Zea mays [3]) turn out when `CCCCOC(C)(OCCCC)C(Cl)Cl` was run?
**A.** inactive

**Q.** `CC1(C(Cl)Cl)OCCCO1` was tested. Which Activity (Zea mays [4]) did it give?
**A.** Active

**Q.** What about the Activity (Zea mays [1]) of the same compound?
**A.** 68%

**Q.** And the Activity (Zea mays [9])?
**A.** Active

**Q.** What about the Activity (Zea mays [3]) of the same compound?
**A.** inactive

**Q.** What does the source list for `CCOC(OCC)C(Cl)Cl`?
**A.** Activity (Zea mays [1]): 24%; Activity (Zea mays [10]): Active; Activity (Zea mays [9]): Active; Activity (Zea mays [3]): inactive

**Q.** With `CC1(C(Cl)Cl)OCCCCCO1` as the compound, how does the Activity (Zea mays [4]) read?
**A.** Active

**Q.** What about the Activity (Zea mays [1]) of the same compound?
**A.** Active

**Q.** And the Activity (Zea mays [9])?
**A.** Active

**Q.** And the Activity (Zea mays [3])?
**A.** inactive

**Q.** Which results are given for `CCOC(C)(OCC)C(Cl)Cl`?
**A.** Activity (Zea mays [4]): inactive; Activity (Zea mays [1]): 62%; Activity (Zea mays [3]): inactive; Activity (Zea mays [6]): inactive

**Q.** What does the source list for `CCCOC(C)(OCCC)C(Cl)Cl`?
**A.** Activity (Zea mays [4]): inactive; Activity (Zea mays [1]): 63%; Activity (Zea mays [3]): inactive; Activity (Zea mays [6]): inactive

**Q.** What does the source list for `ClC(Cl)C1OCCCCCO1`?
**A.** Activity (Zea mays [1]): 24%; fold change (FC) (Zea mays [2]): 2; Activity (Zea mays [7]): Active; Activity (Zea mays [3]): inactive

**Q.** With `CC1(C)COC(C)(C(Cl)Cl)OC1` as the compound, how does the Activity (Zea mays [4]) read?
**A.** Active

**Q.** What about the Activity (Zea mays [1]) of the same compound?
**A.** Active

**Q.** And the Activity (Zea mays [9])?
**A.** Active

**Q.** What about the Activity (Zea mays [3]) of the same compound?
**A.** inactive

**Q.** What does the source list for `CC(C)COC(C)(OCC(C)C)C(Cl)Cl`?
**A.** fold change (FC) (Zea mays [11]): 4.72; Activity (Zea mays [3]): inactive

**Q.** `ClC(Cl)C1OCCCO1` was tested. Which Activity (Zea mays [1]) did it give?
**A.** 24%

**Q.** And the Activity (Zea mays [7])?
**A.** Active

**Q.** And the Activity (Zea mays [3])?
**A.** inactive

**Q.** With `CCCOC(OCCC)C(Cl)Cl` as the compound, how does the Activity (Zea mays [1]) read?
**A.** 24%

**Q.** And the Activity (Zea mays [3])?
**A.** inactive

**Q.** With `C=CCNC(=O)CCl` [N-ALLYL-2-CHLOROACETAMIDE] as the compound, how does the “fold change (FC)” value (Zea mays [4]) read?
**A.** 2.25

**Q.** What about the Activity (Zea mays [1]) of the same compound?
**A.** 48%

**Q.** And the Activity (Zea mays [5])?
**A.** inactive

**Q.** And the “fold change (FC)” value (Zea mays [6])?
**A.** 2.25

**Q.** For `CC1(C(Cl)Cl)OCCCCCCO1`, which Activity (Zea mays [4]) is on record?
**A.** Active

**Q.** What about the Activity (Zea mays [1]) of the same compound?
**A.** Active

**Q.** What about the Activity (Zea mays [9]) of the same compound?
**A.** Active

**Q.** What about the Activity (Zea mays [3]) of the same compound?
**A.** inactive

**Q.** Which results are given for `CCOC(CCl)OCC` [MONOCHLOROACETAL]?
**A.** Activity (Zea mays [4]): Active; Activity (Zea mays [1]): 24%; Activity (Zea mays [10]): Active

**Q.** Which “fold change (FC)” value (Zea mays [4]) does the source give for `ClC(Cl)C1(c2ccccc2)OCCO1` here?
**A.** >2

**Q.** What about the Activity (Zea mays [1]) of the same compound?
**A.** Active

**Q.** And the Activity (Zea mays [9])?
**A.** Active

**Q.** What about the Activity (Zea mays [3]) of the same compound?
**A.** inactive

**Q.** What about the “fold change (FC)” value (Zea mays [6]) of the same compound?
**A.** >2

**Q.** What does the source list for `C=CCN(CC=C)C(=O)CBr`?
**A.** Activity (Zea mays [12]): Active; Activity (Zea mays [11]): Active; Activity (Zea mays [5]): inactive

**Q.** How did the Activity (Zea mays [4]) turn out when `CC1(C(Cl)Cl)OCCO1` was run?
**A.** Active

**Q.** What about the Activity (Zea mays [1]) of the same compound?
**A.** 64%

**Q.** And the “fold change (FC)” value (Zea mays [12])?
**A.** 3.64

**Q.** What about the “fold change (FC)” value (Zea mays [11]) of the same compound?
**A.** 3.93

**Q.** And the Activity (Zea mays [9])?
**A.** Active

**Q.** And the Activity (Zea mays [3])?
**A.** inactive

**Q.** For `CCCCOC(OCCCC)C(Cl)Cl`, which Activity (Zea mays [1]) is on record?
**A.** 24%

**Q.** What about the Activity (Zea mays [3]) of the same compound?
**A.** inactive

**Q.** `C=CCN(CC=C)C(=O)CCl` was tested. Which Activity (Zea mays [12]) did it give?
**A.** Active

**Q.** What about the Activity (Zea mays [11]) of the same compound?
**A.** Active

**Q.** What about the Activity (Zea mays [5]) of the same compound?
**A.** inactive

**Q.** For `CCOC(CBr)OCC` [BROMOACETAL], which Activity (Zea mays [4]) is on record?
**A.** Active

**Q.** What about the Activity (Zea mays [1]) of the same compound?
**A.** 60%

**Q.** What about the “fold change (FC)” value (Zea mays [11]) of the same compound?
**A.** 3.76

**Q.** What about the Activity (Zea mays [10]) of the same compound?
**A.** Active

**Q.** Which Activity (Zea mays [1]) does the source give for `ClC(Cl)C1OCCO1` here?
**A.** 24%

**Q.** And the Activity (Zea mays [7])?
**A.** Active

**Q.** What about the Activity (Zea mays [3]) of the same compound?
**A.** inactive

**Q.** With `CCOCN(C(=O)CCl)c1c(C)cccc1CC` as the compound, how does the Activity (Zea mays [12]) read?
**A.** Active

**Q.** And the Activity (Zea mays [11])?
**A.** Active

Reference: ChEMBL document CHEMBL3044703, “Safening efficacy of halogenated acetals, ketals and amides and relationship between the structure and effect on glutathione and glutathione S-transferases in maize” (2007)
